Patent publication US20250368647A1, “NITROGEN CONTAINING CONDENSED 2,3-DIHYDROQUINAZOLINONE COMPOUNDS AS NAV1.8 INHIBITORS” (GLAXOSMITHKLINE INTELLECTUAL PROPERTY DEVELOPMENT LIMITED, priority 2022, published 2025)
Read-outs that look alike come from different tables or passages of the source.

Experiments:
human Nav1.8 = human Nav1.8 (Homo sapiens (Human), UniProt Q9Y5Y9); assay: QPatch 48 HTX voltage-clamp electrophysiology, half inactivation state (V1/2) protocol, HEK293-Nav1.8 cells; format: cell-based; details: HEK293 cells expressing human Nav1.8, human Navβ1 and human TREK1, P2 current; for IC50: read-out: Nav1.8, pIC50 (converted)
Chain of human Nav1.8 (Q9Y5Y9 whole entry): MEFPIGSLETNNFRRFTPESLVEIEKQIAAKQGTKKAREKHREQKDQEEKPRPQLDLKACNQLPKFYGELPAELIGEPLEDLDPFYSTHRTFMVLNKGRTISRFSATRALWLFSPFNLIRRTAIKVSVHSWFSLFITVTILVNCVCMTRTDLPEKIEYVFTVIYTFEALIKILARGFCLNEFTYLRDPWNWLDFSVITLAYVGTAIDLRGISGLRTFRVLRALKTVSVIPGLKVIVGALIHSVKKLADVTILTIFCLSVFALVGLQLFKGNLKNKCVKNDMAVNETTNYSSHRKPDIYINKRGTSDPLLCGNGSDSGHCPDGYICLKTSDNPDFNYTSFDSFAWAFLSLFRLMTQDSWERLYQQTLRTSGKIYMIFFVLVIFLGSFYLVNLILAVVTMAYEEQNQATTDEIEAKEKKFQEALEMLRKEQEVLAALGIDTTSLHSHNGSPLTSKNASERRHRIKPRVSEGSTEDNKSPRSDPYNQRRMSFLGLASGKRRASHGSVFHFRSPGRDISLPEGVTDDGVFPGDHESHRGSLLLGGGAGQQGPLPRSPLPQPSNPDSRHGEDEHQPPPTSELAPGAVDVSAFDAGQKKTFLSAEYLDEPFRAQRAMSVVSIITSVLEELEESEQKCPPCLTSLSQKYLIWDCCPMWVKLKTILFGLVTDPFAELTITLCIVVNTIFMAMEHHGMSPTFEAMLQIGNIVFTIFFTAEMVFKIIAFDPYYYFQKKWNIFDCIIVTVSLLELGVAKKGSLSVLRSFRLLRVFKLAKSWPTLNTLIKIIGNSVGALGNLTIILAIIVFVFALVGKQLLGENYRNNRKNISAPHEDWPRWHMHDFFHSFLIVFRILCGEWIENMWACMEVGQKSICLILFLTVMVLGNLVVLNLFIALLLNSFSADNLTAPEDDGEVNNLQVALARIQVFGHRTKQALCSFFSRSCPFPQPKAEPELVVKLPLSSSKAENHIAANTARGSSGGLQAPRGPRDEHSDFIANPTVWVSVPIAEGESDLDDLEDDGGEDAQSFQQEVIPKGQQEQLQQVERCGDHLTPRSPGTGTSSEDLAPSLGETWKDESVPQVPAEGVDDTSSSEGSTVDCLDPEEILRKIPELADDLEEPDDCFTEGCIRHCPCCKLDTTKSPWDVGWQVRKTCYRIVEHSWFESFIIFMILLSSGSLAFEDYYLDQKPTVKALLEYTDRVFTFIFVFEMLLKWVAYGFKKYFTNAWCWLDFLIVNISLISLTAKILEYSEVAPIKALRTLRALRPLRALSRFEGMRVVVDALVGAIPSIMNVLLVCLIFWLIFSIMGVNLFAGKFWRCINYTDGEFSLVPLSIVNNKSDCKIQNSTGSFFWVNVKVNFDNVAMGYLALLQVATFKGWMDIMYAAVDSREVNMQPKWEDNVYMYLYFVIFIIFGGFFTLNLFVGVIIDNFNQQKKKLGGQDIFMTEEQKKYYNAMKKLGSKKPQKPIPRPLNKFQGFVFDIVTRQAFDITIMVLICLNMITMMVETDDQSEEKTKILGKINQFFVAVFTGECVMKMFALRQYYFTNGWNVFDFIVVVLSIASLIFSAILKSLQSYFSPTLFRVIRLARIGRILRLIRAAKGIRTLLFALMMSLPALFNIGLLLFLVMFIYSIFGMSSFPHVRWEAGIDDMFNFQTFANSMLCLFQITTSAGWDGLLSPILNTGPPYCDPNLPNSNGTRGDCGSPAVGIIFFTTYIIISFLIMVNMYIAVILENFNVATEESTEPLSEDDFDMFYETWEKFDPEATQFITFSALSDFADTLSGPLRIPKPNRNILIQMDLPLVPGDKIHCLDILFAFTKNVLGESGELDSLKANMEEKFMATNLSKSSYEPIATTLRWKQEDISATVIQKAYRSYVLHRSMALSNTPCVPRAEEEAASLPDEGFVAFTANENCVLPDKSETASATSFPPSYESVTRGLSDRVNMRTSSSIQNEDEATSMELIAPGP
Chain of human Nav1.8 (Q07699 19-218 partner): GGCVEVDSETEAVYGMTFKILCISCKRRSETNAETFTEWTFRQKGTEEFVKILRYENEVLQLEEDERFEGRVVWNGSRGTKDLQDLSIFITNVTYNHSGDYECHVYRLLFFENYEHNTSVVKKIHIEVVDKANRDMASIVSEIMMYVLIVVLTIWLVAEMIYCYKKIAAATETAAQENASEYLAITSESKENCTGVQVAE
In short: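 HEK293 cells co-expressing Navβ1 and TREK1 were voltage-clamped from −100 mV: a 20 ms step to 0 mV, 8 s inactivation at −46 mV, 20 ms at −100 mV, then a 20 ms P2 test step to 0 mV, repeated every 15 s. P2 current was normalized to vehicle and full block, corrected for run-down, and Hill-fitted (4–6 concentrations) for IC50.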

## COc1ccc(NC(=O)c2cc(Cl)c(F)cc2Br)c(N(CCCc2cc(F)ccc2N)C(=O)OC(C)(C)C)n1
The molecule shown is the open-chain precursor, other bond, 13-membered ring, CuI/DIEA, DMF, 21.9 mM, 95.0 °C
  ring closure, isolated yield: 29%

## COc1ccc2c(n1)C(C)(C)CN(C(=O)OC(C)(C)C)Cc1cc(F)ccc1Nc1cc(C(F)(F)F)c(F)cc1C(=O)N2
From COC(=O)c1cc(F)c(C(F)(F)F)cc1Nc1ccc(F)cc1CN(CC(C)(C)c1nc(OC)ccc1N)C(=O)OC(C)(C)C, amide bond, 13-membered ring, LiHMDS, THF, 104.0 mM, 16.0 h
  ring closure, isolated yield: 46%

## COc1ccc2c(n1)C=CCCc1cc(F)ccc1N1CN2C(=O)c2cc(C(F)(F)F)ncc21
From C=CCCc1cc(F)ccc1N1CN(c2ccc(OC)nc2/C=C\C)C(=O)c2cc(C(F)(F)F)ncc21, rcm bond, 11-membered ring, Hoveyda-Grubbs II, DCE, 80.0 °C, 18.5 h
  ring closure, isolated yield: 3%

## COc1ccc2c(n1)C=CCc1cc(F)ccc1N1CN2C(=O)c2cc(C(F)(F)F)ccc21
From C=CCc1cc(F)ccc1N1CN(c2ccc(OC)nc2C=C)C(=O)c2cc(C(F)(F)F)ccc21, rcm bond, 10-membered ring, Hoveyda-Grubbs II (20 mol%), DCE, 1.38 mM, 80.0 °C, 4.0 h
  ring closure, isolated yield: 72%

## COc1ccc2c(n1)CC=CCCc1cc(F)ccc1N1CN2C(=O)c2cc(C(F)(F)F)ccc21
From C=CCCc1cc(F)ccc1N1CN(c2ccc(OC)nc2CC=C)C(=O)c2cc(C(F)(F)F)ccc21, rcm bond, 12-membered ring, Hoveyda-Grubbs II (20 mol%), DCE, 50.3 mM, 80.0 °C, 18.0 h
  ring closure, isolated yield: 67%

## COc1ccc2c(n1)CC=CCc1cc(F)ccc1N1CN2C(=O)c2cc(C(F)(F)F)ccc21
From C=CCc1cc(F)ccc1N1CN(c2ccc(OC)nc2CC=C)C(=O)c2cc(C(F)(F)F)ccc21, rcm bond, 11-membered ring, Hoveyda-Grubbs II (20 mol%), DCE, 8.6 mM, 80.0 °C, 16.0 h
  ring closure, isolated yield: 68%

## COc1ccc2c(n1)CC=CCc1cc(F)ccc1N1CN2C(=O)c2ccc(C(F)(F)F)cc21
From C=CCc1cc(F)ccc1N1CN(c2ccc(OC)nc2CC=C)C(=O)c2ccc(C(F)(F)F)cc21, rcm bond, 11-membered ring, Hoveyda-Grubbs II (20 mol%), DCE, 8.6 mM, 80.0 °C, 16.0 h
  ring closure, isolated yield: 52%

## COc1ccc2c(n1)CCC=CCc1cc(F)ccc1N1CN2C(=O)c2cc(Cl)cnc21
From C=CCCc1nc(OC)ccc1N1CN(c2ccc(F)cc2CC=C)c2ncc(Cl)cc2C1=O, rcm bond, 12-membered ring, Hoveyda-Grubbs II, DCE, 80.0 °C, 1.0 h
  ring closure, isolated yield: 51%

## COc1ccc2c(n1)N(C(=O)OC(C)(C)C)CCCc1c(ccc(F)c1F)Nc1cc(C(F)(F)F)c(F)cc1C(=O)N2
From COc1ccc(N)c(N(CCCc2c(Nc3cc(C(F)(F)F)c(F)cc3C(=O)O)ccc(F)c2F)C(=O)OC(C)(C)C)n1, amide bond, 13-membered ring, PyOxim/DIEA, DMF, 129.0 mM, 24.0 h
  ring closure, isolated yield: 72%

## COc1ccc2c(n1)N(C(=O)OC(C)(C)C)CCCc1cc(F)ccc1Nc1ccc(C(F)(F)F)cc1C(=O)N2
From COc1ccc(N)c(N(CCCc2cc(F)ccc2Nc2ccc(C(F)(F)F)cc2C(=O)O)C(=O)OC(C)(C)C)n1, amide bond, 13-membered ring, PyOxim/DIEA, DMF, 95.4 mM, 2.0 h
  ring closure, isolated yield: 80%

## COc1ccc2c(n1)NCCCCc1cc(F)ccc1N1CN2C(=O)c2cc(C(F)(F)F)ccc21
From COc1ccc(N2CN(c3ccc(F)cc3CCCCN)c3ccc(C(F)(F)F)cc3C2=O)c(Br)n1, cn_pd bond, 12-membered ring, Pd2(dba)3/BINAP/NaOtBu, toluene, 71.0 mM, 90.0 °C, 3.0 h
  ring closure, isolated yield: 40%

## COc1ccc2c(n1)NCCOCc1cc(F)ccc1N1CN2C(=O)c2cc(F)c(C(F)(F)F)cc21
From COc1ccc(N2CN(c3ccc(F)cc3COCCN)c3cc(C(F)(F)F)c(F)cc3C2=O)c(Br)n1, cn_pd bond, 12-membered ring, Pd2(dba)3/BINAP/NaOtBu, toluene, 46.4 mM, 100.0 °C, 4.0 h
  ring closure, isolated yield: 37%

## O=C1c2cc(C(F)(F)F)ccc2N2CN1c1ccncc1CC=CCCc1cc(F)ccc12
From C=CCCc1cc(F)ccc1N1CN(c2ccncc2CC=C)C(=O)c2cc(C(F)(F)F)ccc21, rcm bond, 12-membered ring, Greencat-iPr, DCE, 80.0 °C, 4.0 h
  ring closure, isolated yield: 40%

## 3^4-fluoro-1^6-methoxy-2^7-(trifluoromethyl)-2^1,2^2,2^3,2^4-tetrahydro-4-oxa-2(3,1)-quinazolina-1(3,2)-pyridina-3(1,2)-benzenacyclo octaphane-6-en-2^4-one
Rcm bond, 12-membered ring, Hoveyda-Grubbs M722 (Grubbs C711), 80.0 °C
  ring closure, isolated yield: 7%

## C[C@H]1CCNc2[nH]c(=O)ccc2N2CN(c3cc(C(F)(F)F)c(F)cc3C2=O)c2ccc(F)c(F)c21 [Example 132, (10S)-2,8,9-trifluoro-10-methyl-3-(trifluoromethyl)-10,11,12,13-tetrahydro-19H-5,18-methanodibenzo[f,i]pyrido[2,3-b][1,4,8]triazacyclotridecine-15,19(14H)-dione]
Human Nav1.8
  IC50: 6.31 nM

## C[C@@H]1CCNc2[nH]c(=O)ccc2N2CN(c3cc(C(F)(F)F)c(F)cc3C2=O)c2ccc(F)c(F)c21 [Example 133, (10R)-2,8,9-trifluoro-10-methyl-3-(trifluoromethyl)-10,11,12,13-tetrahydro-19H-5,18-methanodibenzo[f,i]pyrido[2,3-b][1,4,8]triazacyclotridecine-15,19(14H)-dione]
Human Nav1.8
  IC50: 39.8 nM

## CC1(C)CNCc2cc(F)ccc2N2CN(C(=O)c3cc(F)c(C(F)(F)F)cc32)c2ccc(=O)[nH]c21 [Example 134, 2,8-Difluoro-13,13-dimethyl-3-(trifluoromethyl)-10,11,12,13-tetrahydro-19H-5,18-methanodibenzo[c,f]pyrido[3,2-j][1,5,9]triazacyclotridecine-15,19(14H)-dione]
Human Nav1.8
  Nav1.8, pIC50: 7.3

## Cl.O=C1c2cc(F)c(C(F)(F)F)cc2N2CN1c1ccc(=O)[nH]c1NCCNCc1c2ccc(F)c1F [Example 135, 2^6,3^3,3^4-Trifluoro-2^7-(trifluoromethyl)-1^1,1^2,2^1,2^2,2^3,2^4-hexahydro-5,8-diaza-2(3,1)-quinazolina-1(5,6)-pyridina-3(1,2)-benzenacyclooctaphane-1^2,2^4-dione hydrochloride]
Human Nav1.8
  Nav1.8, pIC50: 7.4

## C[C@H]1NCCCc2[nH]c(=O)ccc2N2CN(c3cc(C(F)(F)F)c(F)cc3C2=O)c2ccc(F)cc21 [Example 136, (4R)-2^6,3^4-Difluoro-4-methyl-2^7-(trifluoromethyl)-1^1,1^2,2^1,2^2,2^3,2^4-hexahydro-5-aza-2(3,1)-quinazolina-1(5,6)-pyridina-3(1,2)-benzenacyclooctaphane-1^2,2^4-dione]
Human Nav1.8
  Nav1.8, pIC50: 6.9

## C[C@@H]1NCCCc2[nH]c(=O)ccc2N2CN(c3cc(C(F)(F)F)c(F)cc3C2=O)c2ccc(F)cc21 [Example 137, (4S)-2^6,3^4-Difluoro-4-methyl-2^7-(trifluoromethyl)-1^1,1^2,2^1,2^2,2^3,2^4-hexahydro-5-aza-2(3,1)-quinazolina-1(5,6)-pyridina-3(1,2)-benzenacyclooctaphane-1^2,2^4-dione]
Human Nav1.8
  Nav1.8, pIC50: 6.6
